According to patent US11684616B2, “Azalactam compounds as HPK1 inhibitors” (PFIZER INC., priority 2020, dated 2023):

Columns and labels:
[1] = target: Human recombinant full-length GST-tagged PRKD2 (PKD2) (Homo sapiens (Human), UniProt Q9BZL6); assay: Biochemical selectivity kinase assay (Z'-LYTE FRET), PRKD2
Description: (§1) Biochemical Selectivity Kinase Assay.
(§2) The dose response curve was curve fit to model number 205 (sigmoidal dose-response model). A ratio of the PRKD2 IC50 to the HPK1 Ki and a ratio of the RSK3 IC50 to the HPK1 Ki, is provided in the respective columns adjacent to the columns for PRKD2 IC50 and RSK3 IC50.

[2] = target: Human recombinant full-length GST-tagged RPS6KA2 (RSK3) (Homo sapiens (Human), UniProt Q15349); assay: Biochemical selectivity kinase assay (Z'-LYTE FRET), RSK3
Description: as §1, §2

[3] = target: human full-length autophosphorylated recombinant HPK1 (Homo sapiens (Human), UniProt Q92918); assay: HPK1 biochemical enzyme assay (chelation-enhanced fluorescence, CHEF); settings: 0.5 nM HPK1, 45 μM ATP, Morrison fit
Method in brief: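 Autophosphorylated full-length human HPK1 from Sf21 cells, His-tag removed by TEV, residual N-terminal Gly-Ser. Activity measured with a C-Sox fluorescent peptide substrate (CHEF); initial velocities followed at λex 360/λem 500 nm, 30 °C for 15 min.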

[4] = system: Phospho-SLP-76 (Ser376) in Jurkat cells; assay: Phospho-SLP-76 (Ser376) HTRF assay in anti-CD3 stimulated Jurkat cells; assay type: cell-based; settings: Homo sapiens, Jurkat, 30 min pre-treatment, anti-CD3 stimulation 15 min, read-out: pSLP76 IC50
Method in brief: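 Jurkat cells pre-treated 30 min with compound (11-point 3-fold series, final 10 μM to 0.1 nM, 0.1% DMSO), then stimulated 15 min at 37° C with 200 μg/mL F(ab)2-complexed anti-CD3 (UCTH1). Lysate phospho-SLP-76 read by HTRF sandwich after overnight RT incubation; IC50 from four-parameter fit.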

Sequence of Human recombinant full-length GST-tagged PRKD2 (PKD2) (Q9BZL6 whole entry): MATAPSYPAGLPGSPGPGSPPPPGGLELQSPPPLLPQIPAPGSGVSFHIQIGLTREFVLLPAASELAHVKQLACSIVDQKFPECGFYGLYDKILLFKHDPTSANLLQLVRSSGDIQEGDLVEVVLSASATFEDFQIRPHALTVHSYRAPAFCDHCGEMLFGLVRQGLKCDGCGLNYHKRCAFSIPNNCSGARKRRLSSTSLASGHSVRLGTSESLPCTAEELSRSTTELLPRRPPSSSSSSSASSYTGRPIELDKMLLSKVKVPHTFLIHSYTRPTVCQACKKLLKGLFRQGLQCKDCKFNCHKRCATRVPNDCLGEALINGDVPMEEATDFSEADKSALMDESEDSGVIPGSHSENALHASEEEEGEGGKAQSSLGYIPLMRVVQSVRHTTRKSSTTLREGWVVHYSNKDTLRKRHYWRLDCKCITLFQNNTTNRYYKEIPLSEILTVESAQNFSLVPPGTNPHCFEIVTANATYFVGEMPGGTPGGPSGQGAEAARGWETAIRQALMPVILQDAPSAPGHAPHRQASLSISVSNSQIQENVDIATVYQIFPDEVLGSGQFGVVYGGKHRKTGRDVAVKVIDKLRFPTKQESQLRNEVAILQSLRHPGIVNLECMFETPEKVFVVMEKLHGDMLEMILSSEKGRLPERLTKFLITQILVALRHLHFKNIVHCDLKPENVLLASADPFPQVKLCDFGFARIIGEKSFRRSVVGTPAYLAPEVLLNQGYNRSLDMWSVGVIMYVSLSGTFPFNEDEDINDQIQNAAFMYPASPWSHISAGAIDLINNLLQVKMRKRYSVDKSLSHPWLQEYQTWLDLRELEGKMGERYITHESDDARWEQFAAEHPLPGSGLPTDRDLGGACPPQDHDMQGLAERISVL
Sequence of Human recombinant full-length GST-tagged RPS6KA2 (RSK3) (Q15349 whole entry): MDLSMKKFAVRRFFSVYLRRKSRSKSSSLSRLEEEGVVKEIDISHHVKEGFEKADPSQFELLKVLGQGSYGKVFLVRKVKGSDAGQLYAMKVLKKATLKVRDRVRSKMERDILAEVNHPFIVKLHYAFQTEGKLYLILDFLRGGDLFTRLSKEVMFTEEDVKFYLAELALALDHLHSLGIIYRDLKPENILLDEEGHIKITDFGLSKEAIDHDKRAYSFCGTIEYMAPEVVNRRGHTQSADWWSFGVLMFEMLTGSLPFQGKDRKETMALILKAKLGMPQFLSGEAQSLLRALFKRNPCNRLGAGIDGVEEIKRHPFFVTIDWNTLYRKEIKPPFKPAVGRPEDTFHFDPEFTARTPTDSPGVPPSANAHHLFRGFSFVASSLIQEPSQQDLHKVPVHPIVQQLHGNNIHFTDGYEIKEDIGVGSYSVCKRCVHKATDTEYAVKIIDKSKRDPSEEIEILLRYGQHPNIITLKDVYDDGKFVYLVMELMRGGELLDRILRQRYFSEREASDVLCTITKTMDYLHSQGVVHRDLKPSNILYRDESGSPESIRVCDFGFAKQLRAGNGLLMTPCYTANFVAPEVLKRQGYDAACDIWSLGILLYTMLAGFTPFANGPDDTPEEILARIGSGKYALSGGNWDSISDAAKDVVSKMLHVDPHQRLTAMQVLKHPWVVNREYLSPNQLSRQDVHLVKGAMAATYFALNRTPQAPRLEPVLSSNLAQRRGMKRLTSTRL
Sequence of human full-length autophosphorylated recombinant HPK1 (Q92918 other isoform, or with tags, fused parts or gaps): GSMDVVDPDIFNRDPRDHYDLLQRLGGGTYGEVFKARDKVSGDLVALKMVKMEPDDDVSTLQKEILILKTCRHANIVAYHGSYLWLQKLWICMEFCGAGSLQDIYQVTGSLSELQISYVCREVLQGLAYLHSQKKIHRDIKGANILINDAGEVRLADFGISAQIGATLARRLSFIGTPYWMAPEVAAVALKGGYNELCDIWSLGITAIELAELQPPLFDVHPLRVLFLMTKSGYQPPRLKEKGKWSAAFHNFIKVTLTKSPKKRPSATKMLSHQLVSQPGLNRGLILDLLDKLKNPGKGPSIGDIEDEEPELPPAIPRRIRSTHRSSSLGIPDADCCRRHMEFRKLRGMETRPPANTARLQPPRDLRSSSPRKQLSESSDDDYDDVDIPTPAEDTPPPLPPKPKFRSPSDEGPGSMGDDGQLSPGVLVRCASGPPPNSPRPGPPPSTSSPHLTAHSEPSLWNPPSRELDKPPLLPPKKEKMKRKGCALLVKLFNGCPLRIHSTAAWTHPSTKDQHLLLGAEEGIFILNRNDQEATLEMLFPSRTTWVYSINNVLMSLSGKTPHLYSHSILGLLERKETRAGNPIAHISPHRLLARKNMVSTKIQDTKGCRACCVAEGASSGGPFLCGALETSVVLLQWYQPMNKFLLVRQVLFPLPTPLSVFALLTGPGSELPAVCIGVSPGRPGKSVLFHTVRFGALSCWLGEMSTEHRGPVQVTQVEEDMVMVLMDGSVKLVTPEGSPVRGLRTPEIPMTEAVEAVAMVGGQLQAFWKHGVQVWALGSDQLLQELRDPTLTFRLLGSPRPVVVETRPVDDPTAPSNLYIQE

CC[C@H]1CCc2nnc(-c3cccc(N4Cc5c(cc(N6CCC[C@H]6C)nc5[C@@H](C)N)C4=O)n3)n21 [Example 2, 4-[(1R)-1-aminoethyl]-2-{6-[(5S)-5-ethyl-6,7-dihydro-5H-pyrrolo[2,1-c][1,2,4]triazol-3-yl]pyridin-2-yl}-6-[(2R)-2-methylpyrrolidin-1-yl]-2,3-dihydro-1H-pyrrolo[3,4-c]pyridin-1-one]
IC50 ([1]; 25 μM ATP (~Km)): 116 nM | PRKD2 IC50/HPK1 Ki ([1]; ratio of the PRKD2 IC50 to the HPK1 Ki): >2320 | IC50 ([2]; 10 μM ATP (~Km)): 21.3 nM | RSK3 IC50/HPK1 Ki ([2]; ratio of the RSK3 IC50 to the HPK1 Ki): >420 | Ki [3]: < 0.05 nM | IC50 [4]: 30 nM
